From ChEMBL document CHEMBL1201862, “PubChem BioAssay data set” (2004)
Calls of active or inactive are those of the source.

Tests used:
[1] = target: T1, Dual specificity protein phosphatase 3 (Homo sapiens, UniProt P51452); assay: SAR VHR1 Fluorescent Assay for In Vitro dose response studies. [Related pubchem assays (depositor defined):AID1654, AID1661, AID1878, AID1992, AID2004, AID2070, AID2085]; format: functional
[2] = target: T2, Dual specificity protein phosphatase 6 (Rattus norvegicus, UniProt Q64346); format: functional
T2 sequence (Q64346 whole entry): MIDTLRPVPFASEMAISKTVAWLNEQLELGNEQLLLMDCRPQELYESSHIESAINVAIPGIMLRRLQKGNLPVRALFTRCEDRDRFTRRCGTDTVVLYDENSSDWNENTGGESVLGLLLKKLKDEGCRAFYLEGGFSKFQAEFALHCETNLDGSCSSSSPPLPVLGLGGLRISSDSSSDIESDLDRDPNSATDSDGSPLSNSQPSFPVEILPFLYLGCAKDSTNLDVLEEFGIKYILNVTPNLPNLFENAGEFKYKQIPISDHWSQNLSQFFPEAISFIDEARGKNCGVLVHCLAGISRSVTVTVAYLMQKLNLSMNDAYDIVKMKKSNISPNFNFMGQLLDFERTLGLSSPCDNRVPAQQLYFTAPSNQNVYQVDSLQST

[3] = target: T2, Dual specificity protein phosphatase 6
[4] = target: T3, Tyrosine-protein phosphatase non-receptor type 7 (Homo sapiens, UniProt P35236); format: functional
T3 sequence (P35236 whole entry): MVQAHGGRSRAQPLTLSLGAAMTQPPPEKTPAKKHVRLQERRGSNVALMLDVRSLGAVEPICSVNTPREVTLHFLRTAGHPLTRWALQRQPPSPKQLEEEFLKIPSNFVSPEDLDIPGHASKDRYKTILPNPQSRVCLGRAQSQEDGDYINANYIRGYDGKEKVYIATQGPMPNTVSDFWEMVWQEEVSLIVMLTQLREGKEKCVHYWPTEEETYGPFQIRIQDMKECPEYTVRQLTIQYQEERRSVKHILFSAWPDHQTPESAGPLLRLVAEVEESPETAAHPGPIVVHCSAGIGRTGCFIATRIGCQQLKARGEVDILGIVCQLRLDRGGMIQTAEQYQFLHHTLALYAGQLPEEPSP

[5] = target: T3, Tyrosine-protein phosphatase non-receptor type 7; assay: redox-active compounds inhibiting HePTP phosphatase – biochemical, fluorescence, mechanism study (AID 2068); format: functional
[6] = target: T1, Dual specificity protein phosphatase 3; assay: MOA VHR1 Fluorescent secondary assay for identification of redox-state modulating compounds. [Related pubchem assays (depositor defined):AID1654, AID1661, AID1878, AID1957]
[7] = target: Glyceraldehyde-3-phosphate dehydrogenase (Homo sapiens, UniProt P04406)
Cytochrome P450 2D6 = Cytochrome P450 2D6 (Homo sapiens, UniProt P10635);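 further: CYP2D6 member of a cytochrome P450 panel assay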
Cytochrome P450 2D6, sequence (P10635 whole entry): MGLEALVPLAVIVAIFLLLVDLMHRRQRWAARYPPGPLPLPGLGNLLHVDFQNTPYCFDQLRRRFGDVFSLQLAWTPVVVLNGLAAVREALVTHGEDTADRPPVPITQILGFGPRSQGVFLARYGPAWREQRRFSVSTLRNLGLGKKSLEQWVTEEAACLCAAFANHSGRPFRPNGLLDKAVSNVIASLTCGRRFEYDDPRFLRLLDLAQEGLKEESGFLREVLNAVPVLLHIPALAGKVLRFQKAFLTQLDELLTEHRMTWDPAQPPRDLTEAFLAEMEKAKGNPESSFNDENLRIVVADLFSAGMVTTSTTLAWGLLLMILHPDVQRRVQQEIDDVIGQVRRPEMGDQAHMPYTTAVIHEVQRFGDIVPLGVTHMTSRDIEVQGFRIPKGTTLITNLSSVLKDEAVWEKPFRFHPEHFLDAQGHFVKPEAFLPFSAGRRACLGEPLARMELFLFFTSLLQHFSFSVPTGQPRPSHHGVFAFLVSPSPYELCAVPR

[8] = target: Phosphoethanolamine/phosphocholine phosphatase (Homo sapiens, UniProt Q8TCT1); assay: SAR assay for compounds that inhibit PHOSPHO1. [Related pubchem assays (depositor defined):AID1545, AID1565, AID1574]
Phosphoethanolamine/phosphocholine phosphatase, sequence (Q8TCT1 whole entry): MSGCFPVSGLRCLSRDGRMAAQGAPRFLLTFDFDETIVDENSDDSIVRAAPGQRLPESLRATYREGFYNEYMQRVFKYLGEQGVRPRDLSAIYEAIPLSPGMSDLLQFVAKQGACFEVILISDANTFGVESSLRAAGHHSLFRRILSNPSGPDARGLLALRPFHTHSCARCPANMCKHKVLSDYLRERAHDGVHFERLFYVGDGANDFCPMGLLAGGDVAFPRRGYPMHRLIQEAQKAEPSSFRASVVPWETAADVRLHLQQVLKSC

Genome polyprotein = Genome polyprotein (dengue virus type 2, UniProt P29990); assay: flavivirus cap methylation enzyme inhibition – biochemical, confirmation dose response, primary screen (AID 588689); format: functional
Genome polyprotein, sequence (P29990 2492-3391 limits assumed): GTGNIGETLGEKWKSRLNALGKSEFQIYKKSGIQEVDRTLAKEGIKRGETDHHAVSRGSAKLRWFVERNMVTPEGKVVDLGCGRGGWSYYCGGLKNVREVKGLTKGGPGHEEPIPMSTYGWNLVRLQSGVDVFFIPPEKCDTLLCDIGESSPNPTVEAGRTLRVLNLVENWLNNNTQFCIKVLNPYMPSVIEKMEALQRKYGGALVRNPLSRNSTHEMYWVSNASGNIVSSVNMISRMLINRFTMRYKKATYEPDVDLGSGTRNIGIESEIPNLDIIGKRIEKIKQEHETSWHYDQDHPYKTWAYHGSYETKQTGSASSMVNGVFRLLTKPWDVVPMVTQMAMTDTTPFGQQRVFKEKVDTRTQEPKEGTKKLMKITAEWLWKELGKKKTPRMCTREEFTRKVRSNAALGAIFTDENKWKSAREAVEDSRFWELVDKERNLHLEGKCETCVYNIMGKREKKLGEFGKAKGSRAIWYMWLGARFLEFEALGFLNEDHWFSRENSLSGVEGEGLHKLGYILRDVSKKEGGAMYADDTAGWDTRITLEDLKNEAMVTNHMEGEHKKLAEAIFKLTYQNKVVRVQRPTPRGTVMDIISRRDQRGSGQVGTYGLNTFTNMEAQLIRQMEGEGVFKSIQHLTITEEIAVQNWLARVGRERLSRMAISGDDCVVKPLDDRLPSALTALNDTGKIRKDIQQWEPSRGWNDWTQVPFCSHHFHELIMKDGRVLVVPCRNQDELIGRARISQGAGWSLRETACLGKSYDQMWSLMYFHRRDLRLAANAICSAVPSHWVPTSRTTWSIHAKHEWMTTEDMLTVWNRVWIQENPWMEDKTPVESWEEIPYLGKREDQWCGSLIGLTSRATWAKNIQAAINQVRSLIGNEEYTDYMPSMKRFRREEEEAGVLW

[9] = target: Glucose-6-phosphate 1-dehydrogenase (Homo sapiens, UniProt P11413); assay: inhibition of Homo sapiens G6PD, dose series – biochemical, fluorescence, selectivity assay for P. falciparum G6PD inhibitor project, dose response (AID 504792); format: functional
Beta-galactosidase = Beta-galactosidase (Escherichia coli, UniProt Q8VNN2); assay: detection-enzyme interference by beta-gal modulators – biochemical, E. coli enzyme, set 3, artefact control for CCR6 antagonist project, dose response (AID 504712); format: functional
Beta-galactosidase, sequence (Q8VNN2 whole entry): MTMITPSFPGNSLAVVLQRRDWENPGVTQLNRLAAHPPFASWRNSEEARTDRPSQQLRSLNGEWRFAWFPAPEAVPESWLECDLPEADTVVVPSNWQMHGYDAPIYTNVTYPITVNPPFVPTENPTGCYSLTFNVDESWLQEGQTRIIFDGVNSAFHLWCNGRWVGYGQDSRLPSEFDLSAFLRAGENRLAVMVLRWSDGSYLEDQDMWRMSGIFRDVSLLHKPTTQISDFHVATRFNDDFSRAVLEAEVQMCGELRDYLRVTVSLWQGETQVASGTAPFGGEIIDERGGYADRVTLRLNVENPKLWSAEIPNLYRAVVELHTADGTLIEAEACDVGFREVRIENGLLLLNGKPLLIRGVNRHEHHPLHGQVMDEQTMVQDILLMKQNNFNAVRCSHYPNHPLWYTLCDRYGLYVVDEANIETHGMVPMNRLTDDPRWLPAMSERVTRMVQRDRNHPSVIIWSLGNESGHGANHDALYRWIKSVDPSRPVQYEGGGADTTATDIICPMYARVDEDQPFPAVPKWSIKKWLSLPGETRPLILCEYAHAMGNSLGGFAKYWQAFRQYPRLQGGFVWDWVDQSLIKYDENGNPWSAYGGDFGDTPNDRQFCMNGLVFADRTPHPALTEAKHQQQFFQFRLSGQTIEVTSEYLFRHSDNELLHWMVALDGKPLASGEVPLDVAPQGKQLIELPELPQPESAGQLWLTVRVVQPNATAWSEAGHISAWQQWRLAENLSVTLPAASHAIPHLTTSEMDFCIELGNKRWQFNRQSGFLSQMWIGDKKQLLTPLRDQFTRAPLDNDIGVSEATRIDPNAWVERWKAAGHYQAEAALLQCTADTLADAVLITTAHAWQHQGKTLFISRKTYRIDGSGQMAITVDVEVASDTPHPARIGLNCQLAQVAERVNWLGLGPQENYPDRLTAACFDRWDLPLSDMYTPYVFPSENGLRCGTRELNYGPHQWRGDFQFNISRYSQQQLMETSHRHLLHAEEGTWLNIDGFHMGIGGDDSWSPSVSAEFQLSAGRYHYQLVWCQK

Hexokinase HKDC1 = target: T4, Hexokinase HKDC1 (Homo sapiens, UniProt Q2TB90); assay: inhibition of HKDC1 glucose phosphorylation – biochemical, W721R variant, dose response (AID 504729); format: functional
T4 sequence (Q2TB90 whole entry): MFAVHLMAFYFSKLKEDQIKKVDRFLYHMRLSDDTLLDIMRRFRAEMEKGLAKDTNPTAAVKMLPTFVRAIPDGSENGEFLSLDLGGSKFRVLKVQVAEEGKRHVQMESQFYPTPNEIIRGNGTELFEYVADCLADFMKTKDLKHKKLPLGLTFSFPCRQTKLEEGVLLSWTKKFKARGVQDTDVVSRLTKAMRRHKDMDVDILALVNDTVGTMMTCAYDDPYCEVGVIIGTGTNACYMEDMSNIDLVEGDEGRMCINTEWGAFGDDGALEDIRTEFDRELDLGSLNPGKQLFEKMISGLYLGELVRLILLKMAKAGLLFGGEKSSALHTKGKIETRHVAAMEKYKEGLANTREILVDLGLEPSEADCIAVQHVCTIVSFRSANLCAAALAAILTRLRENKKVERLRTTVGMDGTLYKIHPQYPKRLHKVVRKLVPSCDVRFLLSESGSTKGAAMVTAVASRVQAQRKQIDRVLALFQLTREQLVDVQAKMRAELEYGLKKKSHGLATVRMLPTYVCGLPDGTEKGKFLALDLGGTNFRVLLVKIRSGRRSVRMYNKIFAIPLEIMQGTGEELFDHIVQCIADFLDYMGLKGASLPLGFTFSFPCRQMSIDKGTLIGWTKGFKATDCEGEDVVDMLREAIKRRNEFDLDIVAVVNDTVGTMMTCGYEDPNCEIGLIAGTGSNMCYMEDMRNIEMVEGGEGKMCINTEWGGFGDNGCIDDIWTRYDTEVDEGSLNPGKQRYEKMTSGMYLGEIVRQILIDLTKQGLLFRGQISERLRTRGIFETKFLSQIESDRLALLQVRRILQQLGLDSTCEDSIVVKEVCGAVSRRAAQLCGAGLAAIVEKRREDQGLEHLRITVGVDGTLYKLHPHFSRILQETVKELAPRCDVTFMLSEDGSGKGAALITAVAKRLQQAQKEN

[10] = target: T5, Hepatocyte nuclear factor 4-alpha (Homo sapiens, UniProt P41235); format: functional, cell-based;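 further: biochemical luminescence-based dose-response counterscreen measuring inhibition of HNF4 dimerization, run alongside a screen for blockers of ABHD5–perilipin-5 interaction; split luciferase complementation of HNF4 fusion proteins in cell lysate measuring dimerization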
T5 sequence (P41235 whole entry): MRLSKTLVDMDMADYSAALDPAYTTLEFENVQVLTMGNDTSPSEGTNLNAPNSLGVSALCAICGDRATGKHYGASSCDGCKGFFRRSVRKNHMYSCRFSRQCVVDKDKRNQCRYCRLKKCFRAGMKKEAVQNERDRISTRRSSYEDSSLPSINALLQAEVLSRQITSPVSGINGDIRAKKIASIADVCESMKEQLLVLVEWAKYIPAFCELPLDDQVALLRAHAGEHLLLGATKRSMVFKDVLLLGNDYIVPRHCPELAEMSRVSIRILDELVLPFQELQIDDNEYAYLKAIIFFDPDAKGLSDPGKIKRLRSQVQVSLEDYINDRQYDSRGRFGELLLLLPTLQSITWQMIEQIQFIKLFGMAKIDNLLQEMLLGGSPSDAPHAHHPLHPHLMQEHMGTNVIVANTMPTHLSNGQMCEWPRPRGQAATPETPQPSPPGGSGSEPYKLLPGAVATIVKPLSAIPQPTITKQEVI

BJ [11] = assay: BJ-TERT fibroblast viability loss – cell-based, RAS-independent, luminescence, dose response (AID 1933); format: functional; details: Homo sapiens
[12] = DRD fibroblast viability loss – cell-based, non-viral oncogenic, luminescence, dose response (AID 1934); format: functional; details: Homo sapiens
BJ [13] = assay: cells; format: functional, cell-based; details: Homo sapiens
J774.A1 = assay: Confirmation of image-based Screening Assay for Inhibitors of Phagocytosis. [Related pubchem assays (depositor defined):AID1029, AID1643]; format: functional, cell-based; details: Mus musculus
BJ [14] = assay: BJ-TERT-LT-ST fibroblast viability loss – cell-based, RAS-independent, luminescence, dose response (AID 1935); format: functional; details: Homo sapiens;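 further: BJ fibroblasts immortalized with TERT plus LT and ST oncogenes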
[15] = HEK-293T viability loss after treatment – luminescence, T-cell screen hits, cytotoxicity control for TCR NF-kB inhibitor project, dose response (AID 489026); format: functional, cell-based;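 further: cells exposed to compound about 14 hours before the viability readout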
[16] = target: G-protein coupled receptor 35 (Homo sapiens, UniProt Q9HC97); assay: SAR analysis of Antagonists of the GPR35 Receptor using an Image-Based Assay - Set 5. [Related pubchem assays (depositor defined):AID2058, AID2079]; format: functional
[17] = target: G-protein coupled receptor 55 (Homo sapiens, UniProt Q9Y2T6); assay: SAR Analysis of Selective Antagonists of GPR55 using an Image-Based Assay - Set 3. [Related pubchem assays (depositor defined):AID2058, AID2079]; format: functional
G-protein coupled receptor 55, sequence (Q9Y2T6 whole entry): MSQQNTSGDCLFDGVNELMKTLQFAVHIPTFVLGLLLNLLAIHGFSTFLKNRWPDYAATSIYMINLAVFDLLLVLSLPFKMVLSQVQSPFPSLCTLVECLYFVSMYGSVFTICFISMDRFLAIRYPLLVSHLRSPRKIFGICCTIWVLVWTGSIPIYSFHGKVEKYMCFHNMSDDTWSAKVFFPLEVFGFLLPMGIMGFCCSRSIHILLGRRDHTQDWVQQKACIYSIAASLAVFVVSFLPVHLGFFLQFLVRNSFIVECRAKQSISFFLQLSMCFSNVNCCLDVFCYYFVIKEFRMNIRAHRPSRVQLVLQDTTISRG

[18] = target: Sphingosine 1-phosphate receptor 4 (Homo sapiens, UniProt O95977); assay: potency of S1P4 activators – cell-based, fluorescence, synthesized compounds, late-stage follow-up (AID 463107); format: functional
Sphingosine 1-phosphate receptor 4, sequence (O95977 whole entry): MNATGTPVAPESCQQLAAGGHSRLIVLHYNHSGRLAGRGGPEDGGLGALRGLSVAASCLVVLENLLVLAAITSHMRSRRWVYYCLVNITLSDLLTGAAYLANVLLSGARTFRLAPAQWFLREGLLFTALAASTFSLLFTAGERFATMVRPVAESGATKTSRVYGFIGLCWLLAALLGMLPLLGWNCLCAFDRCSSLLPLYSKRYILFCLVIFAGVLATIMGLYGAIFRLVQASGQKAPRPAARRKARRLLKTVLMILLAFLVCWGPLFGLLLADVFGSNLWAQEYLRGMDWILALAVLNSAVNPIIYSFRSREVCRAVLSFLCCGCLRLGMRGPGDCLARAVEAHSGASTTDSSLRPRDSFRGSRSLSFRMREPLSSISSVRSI

[19] = target: Potassium voltage-gated channel subfamily KQT member 2 (Rattus norvegicus, UniProt O88943); assay: potentiation of rat KCNQ2 current – cell-based, retigabine-insensitive compounds, dose response (AID 2654); format: functional
[20] = target: T6, Polyadenylate-binding protein 1 (Homo sapiens, UniProt P11940); assay: MLLE domain peptide-binding blockers, IC50 – biochemical, fluorescence polarization, FITC-PAM2 peptide, dose response (AID 602259); format: functional; details: read-out: IC50_Mean
T6 sequence (P11940 whole entry, the tested form may be a part): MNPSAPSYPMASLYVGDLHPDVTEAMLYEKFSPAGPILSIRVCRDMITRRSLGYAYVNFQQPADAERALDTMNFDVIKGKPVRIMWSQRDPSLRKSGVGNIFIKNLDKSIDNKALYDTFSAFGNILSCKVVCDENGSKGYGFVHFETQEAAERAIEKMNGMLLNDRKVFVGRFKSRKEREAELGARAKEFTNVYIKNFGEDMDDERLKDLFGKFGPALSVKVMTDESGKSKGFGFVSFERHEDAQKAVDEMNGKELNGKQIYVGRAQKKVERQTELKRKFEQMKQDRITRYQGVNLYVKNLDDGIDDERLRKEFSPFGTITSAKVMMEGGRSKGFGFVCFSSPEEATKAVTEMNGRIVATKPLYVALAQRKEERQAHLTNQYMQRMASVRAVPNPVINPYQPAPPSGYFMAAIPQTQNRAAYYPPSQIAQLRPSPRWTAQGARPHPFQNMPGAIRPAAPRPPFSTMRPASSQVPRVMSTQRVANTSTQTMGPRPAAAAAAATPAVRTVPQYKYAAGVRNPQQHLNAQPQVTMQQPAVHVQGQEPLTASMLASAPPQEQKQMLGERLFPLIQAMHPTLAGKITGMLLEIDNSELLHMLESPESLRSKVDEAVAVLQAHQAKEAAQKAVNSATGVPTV

[21] = target: T6, Polyadenylate-binding protein 1; assay: MLLE binding blockers, Cy5 peptide tracer – biochemical, fluorescence polarization, Cy5-PAM2 peptide, secondary, miRNA deadenylation inhibitor project, dose response (AID 602260); format: functional; details: read-out: IC50_Mean
[22] = target: NACHT, LRR and PYD domains-containing protein 3 (Homo sapiens, UniProt Q96P20); assay: NALP3 inhibitors in yeast, dose response, luminescent (AID 488799); format: functional
[23] = target: ATP-dependent molecular chaperone HSP82 (Candida albicans (strain WO-1) (Yeast), UniProt C4YTQ8); assay: steroid-induced GRE reporter decrease in yeast – S. cerevisiae, luminescence, Hsp90 inhibitor project, dose response (AID 2400); format: functional, cell-based;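 further: beta-galactosidase luminescence from glucocorticoid response element reporter as proxy for Hsp90 function; inhibitor potency where signal loss means Hsp90 inhibition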
ATP-dependent molecular chaperone HSP82, sequence (C4YTQ8 whole entry): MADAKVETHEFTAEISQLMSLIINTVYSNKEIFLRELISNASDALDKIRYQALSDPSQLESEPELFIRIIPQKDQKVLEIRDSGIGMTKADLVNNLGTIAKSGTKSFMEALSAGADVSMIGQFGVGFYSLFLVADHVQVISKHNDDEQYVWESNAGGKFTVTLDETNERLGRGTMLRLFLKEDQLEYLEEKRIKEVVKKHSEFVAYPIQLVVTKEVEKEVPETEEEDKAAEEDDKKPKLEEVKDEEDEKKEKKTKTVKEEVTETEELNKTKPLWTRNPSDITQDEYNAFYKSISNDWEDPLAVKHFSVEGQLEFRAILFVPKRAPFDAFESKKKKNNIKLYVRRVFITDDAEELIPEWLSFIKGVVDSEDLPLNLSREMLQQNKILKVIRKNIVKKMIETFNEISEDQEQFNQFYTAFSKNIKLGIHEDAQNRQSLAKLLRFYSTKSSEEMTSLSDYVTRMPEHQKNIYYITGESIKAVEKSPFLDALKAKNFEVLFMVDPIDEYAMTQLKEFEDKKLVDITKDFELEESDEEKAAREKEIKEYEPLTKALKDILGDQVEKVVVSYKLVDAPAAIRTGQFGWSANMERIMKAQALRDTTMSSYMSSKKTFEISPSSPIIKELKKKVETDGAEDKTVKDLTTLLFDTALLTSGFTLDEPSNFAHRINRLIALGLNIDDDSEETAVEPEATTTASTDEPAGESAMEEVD

[24] = HepG2 cell cytotoxicity, dose response, cytotoxicity control for non-replicating M. tuberculosis project (AID 489018); format: functional; details: Mycobacterium tuberculosis
[25] = NIH-3T3 fibroblast cytotoxicity, dose response, cytotoxicity control, cell-based, fluorescence, Alamar Blue, secondary assay (AID 2327); format: functional;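 further: NIH-3T3 mouse fibroblasts cultured with fluconazole at 8 µg/mL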
[26] = fluconazole-exposed Candida albicans growth modulators – fluorescence, retest, confirmation (AID 2467); format: functional, cell-based
[27] = Vero E6 cell cytotoxicity, dose response, cytotoxicity control for non-replicating M. tuberculosis project, secondary assay (AID 492998); format: functional, VeroE6; details: Vero C1008
[28] = THP-1 cell cytotoxicity, dose response, cytotoxicity control for non-replicating M. tuberculosis project (AID 489025); format: functional
[29] = target: T7, Serine/threonine-protein phosphatase (Candida dubliniensis (strain CD36 / CBS 7987 / NCPF 3949 / NRRLY-17841) (Yeast), UniProt B9W6M3); assay: blockers of CaCl2-induced CDRE-lacZ signaling – S. cerevisiae, luminescence, secondary, dose response (AID 2388); format: functional, cell-based;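 further: yeast reporter cells carrying a calcineurin-responsive lacZ construct stimulated with calcium chloride; luminescent beta-galactosidase reporter signal in whole cells rather than isolated phosphatase activity; potency for inhibition where a drop in reporter signal means calcineurin blockade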
T7 sequence (B9W6M3 whole entry): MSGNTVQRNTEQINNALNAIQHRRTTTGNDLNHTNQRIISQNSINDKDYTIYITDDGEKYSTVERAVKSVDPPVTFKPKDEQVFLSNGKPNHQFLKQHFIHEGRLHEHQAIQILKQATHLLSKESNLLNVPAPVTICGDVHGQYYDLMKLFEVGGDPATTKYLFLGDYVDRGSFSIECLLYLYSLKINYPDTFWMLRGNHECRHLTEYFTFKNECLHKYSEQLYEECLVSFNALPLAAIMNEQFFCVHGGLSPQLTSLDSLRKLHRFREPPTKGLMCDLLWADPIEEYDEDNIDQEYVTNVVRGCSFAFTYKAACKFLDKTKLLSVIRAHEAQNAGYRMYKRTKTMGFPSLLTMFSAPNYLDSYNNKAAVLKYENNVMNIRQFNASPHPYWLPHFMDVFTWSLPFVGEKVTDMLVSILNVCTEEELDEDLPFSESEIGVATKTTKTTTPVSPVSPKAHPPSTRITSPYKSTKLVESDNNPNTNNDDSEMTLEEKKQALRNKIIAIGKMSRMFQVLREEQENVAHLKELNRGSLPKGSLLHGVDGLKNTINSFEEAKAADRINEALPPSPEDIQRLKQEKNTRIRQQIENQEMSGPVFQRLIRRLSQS

cells = format: functional
[30] = target: Voltage-dependent T-type calcium channel subunit alpha-1H (Homo sapiens, UniProt O95180); assay: human CACNA1H calcium influx blockade – cell-based, synthetic library set 1, calcium flux (AID 493022); format: functional

T1 sequence (P51452 whole entry): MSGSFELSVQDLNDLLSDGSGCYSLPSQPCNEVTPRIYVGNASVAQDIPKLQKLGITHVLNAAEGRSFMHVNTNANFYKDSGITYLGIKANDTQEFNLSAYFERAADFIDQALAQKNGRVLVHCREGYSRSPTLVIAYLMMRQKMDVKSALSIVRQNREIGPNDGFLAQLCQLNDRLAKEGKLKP

O=c1/c(=C/c2cccc(Br)c2)sc2nc3cc(Br)cnc3n12
IC50 [1]: > 100 µM (inactive)
IC50 [2]: > 100 µM (inactive)
IC50 [3]: > 100 µM (inactive)
IC50 [4]: > 100 µM (not active)
IC50 [5]: 98.3 µM (active)
IC50 [6]: > 100 µM (inactive)
IC50 [7]: > 100 µM (not active)

Cc1c(OCC(F)(F)F)ccnc1C[S+]([O-])c1nc2ccccc2[nH]1 (stereo unspecified) [LANSOPRAZOLE]
AC50 (Cytochrome P450 2D6): 12.6 µM (inconclusive)
IC50 [8]: 0.434 µM (active)

CN(C)c1ccc(Cc2cc3c(O)ccc(O)c3cc(Cc3ccc(N(C)C)cc3)c2=O)cc1
IC50 (Genome polyprotein): 44.1 µM (active)
IC50 [9]: 56.7 µM (inactive)
IC50 (Beta-galactosidase): > 66.6 µM (inactive)
IC50 (Hexokinase HKDC1): 10.9 µM (active)
IC50 [10]: 4.6 µM (active)

CCOc1ccccc1C1CC(=O)Nc2cc3c(cc21)OCCO3 (stereo unspecified)
EC50 (BJ [11]): 1.23 µM (active)
EC50 [12]: 0.829 µM (active)
EC50 (BJ [13]): 22.3 µM (active)
IC50 (J774.A1): > 25 µM (inactive)
EC50 (BJ [14]): 0.814 µM (inconclusive)
IC50 [15]: > 80 µM (inactive)

COC(=O)c1cnn(-c2ccc(Cl)cc2)c1/C=N/NC(N)=S
IC50 [16]: 4.6 µM (active)
IC50 [17]: > 32 µM (inactive)

Cc1ccc(OCCCOc2ccc(Cl)cc2Cl)c([N+](=O)[O-])n1
EC50 [18]: > 50 µM (inactive)

Fc1cccc(NC(=S)Nc2cccnc2)c1
EC50 [19]: 41.9 µM (active)
IC50 [20]: > 66 µM (inactive)
IC50 [21]: > 66 µM (inactive)

O=c1c2cc(Br)ccc2nc(-c2ccc([N+](=O)[O-])cc2)n1O
IC50 [22]: 4.91 µM (active)
EC50 [23]: 2.56 µM (active)
CC50 [24]: 19.9 µM (active)
EC50 [25]: > 150 µM (inactive)
EC50 [26]: 0.585 µM (active)
CC50 [27]: 18.4 µM (active)
CC50 [28]: 20.3 µM (active)
EC50 [29]: 3.07 µM (active)
IC50 (cells): 11.9 µM (active)

Cc1ccc(-c2nnc(NC(=O)COc3ccccc3Cl)o2)cc1C
EC50 [30]: 1.3 µM (active)
